# Laboratory results taken from patent publication US9243036B2, “Anti-microbial activity of synthetic peptides” (THE UNITED STATES OF AMERICA, as represented by the …, priority 2012, dated 2016).
# Residues, ends and D or L forms follow the SMILES beside them.
# Test system: S. aureus
# Test: Cytoplasmic membrane depolarization assay (diSC3-5)
# Type: cell-based
# Conditions: EC5 64 μg/ml; after 45 min
# Experimental: Membrane depolarization activity (Δψ) of the peptide was determined with intact E. coli and P. aeruginosa cells and the membrane potential-sensitive fluorescent dye, 3,3′-dipropylthiadicarbocyanine Iodide (diSC (3)5) (Invitrogen, Oregon), according to described methods (Sims, P. J., et al (1974) Biochemistry 13, 3315-3330). Briefly, bacterial cells of mid-logarithmic phase were harvested by centrifugation and washed twice with HEPES buffer (5 mM HEPES, 5 mM glucose, pH 7.6). The cells were suspended in the same buffer to an OD of 0.05. The cell suspension was incubated with […] diSC (3)5 until maximal uptake of the dye. 100 mM KCl was added to equilibrate the cytoplasmic and external potassium ion concentration of peptide, and fluorescence was monitored at an excitation wavelength of 622 nm and an emission wavelength of 670 nm. […]
# Cytoplasmic depolarization assay(Δψ) was performed using the membrane potential sensitive dye 3,3′-dipropylthiadicarbocyanine iodide (diSC3-5) (Zang, L. et al., (2001) J. Biol. Chem. 276, 35714-35722). This dye can cross the outer membrane of the bacterial cell and become concentrated in the cytoplasmic membrane and thereby it self-quenches its own fluorescence. Upon addition of a membrane-permeabilizing agent the dye is released with consequent increase in the fluorescence. […]
smiles,measurement,value
"CC[C@H](C)[C@H](NC(=O)[C@H](CCCCN)NC(=O)[C@H](CCCNC(=N)N)NC(=O)[C@H](Cc1ccccc1)NC(=O)[C@H](CC(C)C)NC(=O)[C@H](CC(C)C)NC(=O)[C@@H](N)CCCNC(=N)N)C(=O)N[C@@H](CCCNC(=N)N)C(=O)N[C@@H](CCCNC(=N)N)C(=O)N[C@@H](CC(C)C)C(=O)N[C@@H](CCCCN)C(=O)N[C@@H](CCCNC(=N)N)C(=O)O [EC5, RLLFRKIRRLKR] (H-RLLFRKIRRLKR-OH; N-terminus and C-terminus assumed)",release of diSC3-5 from S. aureus,no trace of release
